Source: article PMC12070228, “Investigations of Enteric-Coated Tablet Propyl Gallate-Induced Nephrotoxicity in Beagles as well as Human and Dog Renal Proximal Tubule Epithelial Cells” (ACS Pharmacology & Translational Science, 2025)

Legend:
dog RPTECs = assay: GSH-Glo glutathione assay; format: cell-based; details: ~48 h, high concentrations
Description: (§1) Frozen RPTECs vials were removed from liquid nitrogen storage and placed in a 37 °C water bath until the contents were completely thawed. The cells were gently resuspended and dispensed into a cell culture flask at a seeding density of ∼7500 cells/cm^2. The flask was placed in a 37 °C, 5% CO2 incubator. Cell cultures were given fresh medium the following morning and then every other day until the cell culture was approximately 90% confluent. When the cell culture was 90% confluent, medium was removed and the cells were rinsed with warmed PBS. Cells were harvested and split into new flasks based on a cell density of 7500 cells/cm^2. Cells were incubated at 37 °C for 3 days, with fresh medium added each day. Cells were harvested and diluted with growth medium to a density of 200,000 cells/mL. 100 μL of cell suspension per well (20,000 cells/well) was added to a clear-bottom 96-well microplate for luminescence assays. The plated cells were incubated in the 37 °C incubator for 3 days.
(§2) Each test compound (PG, GA, 4OMPG and 4OMGA) was initially reconstituted using DMSO at a concentration of 250 mg/mL. Serial dilutions of each compound were performed to reach concentrations of 4000 μM, 2000 μM, 1000 μM, 500 μM, 250 μM, 125 μM, 62.5 μM, 31.3 μM using warmed fresh supplemented medium with 0.4% (v/v) DMSO for all concentration levels. 100 μL of media containing the compound solution was added to the cells. Final concentrations of the compounds were 2000 μM, 1000 μM, 500 μM, 250 μM, 125 μM, 62.5 μM, 31.3 μM, 15.7 μM. AZ13599185 (tubulysin, 100 or 500 ng/mL) or cisplatin (30 μg/mL) and buthionine sulfoximine (BSO, 200 μM) were used as positive controls for CTG and GSH assays, respectively. 0.2% (v/v) DMSO in medium was used as the control for both assays, corrsponding to the final cocnetration of DMSO in the well. Three replicates for each compound at each concentration were prepared. Six replicates of positive or negative controls were prepared. Cells were incubated at 37 °C for approximately 48 h.
(§3) Cell media were removed and cells were washed twice with 200 μL of PBS buffer per well. CTG and GSH assay reagents were added to the wells and the assays were performed following the protocols of the Promega assay kits. Briefly, to perform the CTG assay, 100 μL of CTG solution was added into each well. The plate was gently shaken and incubated in the dark for 30 min and luminescence was measured using a PerkinElmer VICTOR X3 plate reader. To perform the GSH assay, luciferin-NT substrate and glutathione S-transferase were mixed into the GSH-GLo solution. 100 μL of the mixed solution was added into each well. The plate was gently shaken and incubated in the dark for at least 30 min. 100 μL of Luciferin Detection Reagent was added per well. The plate was gently shaken and incubated in the dark for at least 15 min. Luminescence was measured using a PerkinElmer VICTOR X3 plate reader.
(§4) For cell-based assays, data was normalized to the negative control. Cell viability and GSH level were expressed as Cell viability or GSH level=Luminescence(each well)/Luminescence(average of DMSO negative control)

human RPTECs = assay: GSH-Glo glutathione assay; format: cell-based; details: ~48 h, high concentrations
Description: as §1, §2, §3, §4

[1] = Exposure comparison of PG and phase-I and phase-II metabolites in dog and human plasma; details: oral EC MEDI7219 tablets; samples through 8 h; human PG 800 mg (N = 8), dog PG 200 mg/kg/day (N = 6)
Description: Dog blood was collected via jugular vein in potassium (K2) EDTA tubes and processed to plasma. Samples were centrifuged at approximately 3000 rpm for 5 min at approximately 4 °C within 30 min of collection. Plasma samples were acidified with 1% (v/v) formic acid (FA) to avoid degradation of PG and metabolites in plasma within 20 min of the start of centrifugation and then stored frozen (≤-60 °C). Acidified plasma was extracted using internal standard-spiked solution (100 mM ammonium bicarbonate: acetonitrile = 1:4). Samples were then centrifuged to collect supernatant, followed by drying to completion. The dried samples were reconstituted with 200 uL of 0.1% (v/v) formic acid in water. Samples were vortexed and centrifuged before injection. In order to assess potential impact of hemolysis on qualification of PG and its metabolites, hemolyzed plasma was prepared by spiking fully hemolyzed whole blood at an indicated percentage into plasma.
Separations were conducted on a reversed-phase column (Phenomenex, Kinetex F5, 2.6 μm 100 Å, 100 × 4.6 mm) at a flow rate of 0.7 mL/min at 40 °C. Mobile phase A was 0.1% formic acid in water and mobile phase B was 0.1% formic acid in methanol. The samples were analyzed on a SCIEX 6500+ QTRAP under negative ESI mode. The total run time was 5.5 min. Eight calibration standards and three quality control (LQC, MQC and HQC) samples were used for quantification.
The primary metabolites of PG were measured in dog and human plasma following oral administration of EC MEDI7219 tablets to examine a potential mechanism of the PG-mediated renal toxicity in dog and its possible translatability to humans. Plasma concentrations of PG, its phase-I metabolites GA and 4OMGA and phase-II glucuronide and glutathione conjugates were measured. The human and dog samples, collected through 8 h after administration, were analyzed and the results were compared (Figure , Figure S5). Based on allometric scaling method the highest daily dose administered in humans was approximately 8-fold less compared with the dose level tested in dogs.
Human (H) data is in black. Dog (D) data is in red (study 002). Concentration (mM) is in log10 scale. Data was normalized to PG dose (mg/kg/day). N = 8 for human (PG dosed at 800 mg with MEDI7219 tablets). N = 6 for dogs (PG dosed at 200 mg/kg/day). Below LLOQ values were set to 1/2 LLOQ for the calculation.

[2] = no reference given; cited from earlier work
urine NGAL = details: dog, in vivo
Description: In the first investigative 4-week study (study 002), dogs received EC tablets consisting of different combinations of the clinical formulation excipients (Table ) with or without PG once daily for 27 days. For groups receiving tablets with PG, each EC tablet contained 100 mg PG; the number of tablets administered each day (13–20 placed in size 12 gelatin capsules) was adjusted based on the most recent body weight to yield a target PG dose level of 200 mg/kg/day. Scheduled necropsies of all surviving animals were conducted on day 28 of the dosing phase. Samples for PG toxicokinetics were collected on days 1, 14, 21, and 25 of the dosing-phase. On days 1, 14, and 21 samples were collected: predose and approximately 1, 2, 3, 4, 6, 8, 12, and 24 h postdose. Days 25: predose and approximately 1, 2, 3, 4, 6, 8, 10, and 24 h postdose. […] NGAL was measured using an ELISA method and normalized to urine creatinine. Blood samples for standard clinical chemistry parameters, including creatinine and urea nitrogen, were collected from fasted dogs twice prior to the predose phase and before daily dose administration on Days 7, 14, and 21 of the dosing phase, as well as on the day of scheduled necropsy; samples were measured on a clinical chemistry analyzer using a validated method.

Compound	GSH levels at high concentrations (human RPTECs)	Plasma exposure, humans compared with dogs [1]	also measured
O=C(O)c1cc(O)c(O)c(O)c1 [GA, Gallic acid]	reduction of GSH levels	comparable between the two species	GSH levels at high concentrations (dog RPTECs): reduction of GSH levels; Log P [2]: 0.91
O=C(O)c1cc(O)c(O)c(OC2OC(C(=O)O)C(O)C(O)C2O)c1 (centres unmarked) [GA-3-Gluc, gallic acid-3-glucoronide]		lower exposure	
COc1c(O)cc(C(=O)O)cc1O [Group 4OMGA, 4-O-methyl gallic acid]		comparable between the two species	
CCCOC(=O)c1cc(O)c(OC)c(O)c1 [Group 4OMPG, 4-O-methyl propyl gallate, reference compound]	increases of GSH		
C[C@H](CCC(=O)[O-])[C@H]1CC[C@H]2[C@@H]3[C@H](O)C[C@@H]4C[C@H](O)CC[C@]4(C)[C@H]3CC[C@]12C.[Na+] [NaCDC, sodium chenodeoxycholate]			Urine NGAL levels (urine NGAL): did not induce elevations in NGAL levels
